Assay results published in paper PMC7667638 (Journal of Medicinal Chemistry, 2020).
Read-outs that look alike come from different tables or passages of the source.

Experiments:
[1] = target: T1, hNaV1.7 (Homo sapiens, UniProt Q15858); test: cell-based; details: SEM
[2] = tested on: rNaV1.4; details: read-out: IC50 (nM ± SEM), rat NaV1.4; cited from earlier work
[3] = target: T2, hNaV1.4 (Homo sapiens, UniProt P35499); test: cell-based; details: for IC50: SEM
[4] = target: T2, hNaV1.4; details: cited from earlier work
[5] = target: T1, hNaV1.7; details: SEM; cited from earlier work
[6] = target: T2, hNaV1.4; test: cell-based; format: cell-based
[7] = target: T1, hNaV1.7; test: cell-based; format: cell-based

T1 sequence (Q15858 whole entry, looked up): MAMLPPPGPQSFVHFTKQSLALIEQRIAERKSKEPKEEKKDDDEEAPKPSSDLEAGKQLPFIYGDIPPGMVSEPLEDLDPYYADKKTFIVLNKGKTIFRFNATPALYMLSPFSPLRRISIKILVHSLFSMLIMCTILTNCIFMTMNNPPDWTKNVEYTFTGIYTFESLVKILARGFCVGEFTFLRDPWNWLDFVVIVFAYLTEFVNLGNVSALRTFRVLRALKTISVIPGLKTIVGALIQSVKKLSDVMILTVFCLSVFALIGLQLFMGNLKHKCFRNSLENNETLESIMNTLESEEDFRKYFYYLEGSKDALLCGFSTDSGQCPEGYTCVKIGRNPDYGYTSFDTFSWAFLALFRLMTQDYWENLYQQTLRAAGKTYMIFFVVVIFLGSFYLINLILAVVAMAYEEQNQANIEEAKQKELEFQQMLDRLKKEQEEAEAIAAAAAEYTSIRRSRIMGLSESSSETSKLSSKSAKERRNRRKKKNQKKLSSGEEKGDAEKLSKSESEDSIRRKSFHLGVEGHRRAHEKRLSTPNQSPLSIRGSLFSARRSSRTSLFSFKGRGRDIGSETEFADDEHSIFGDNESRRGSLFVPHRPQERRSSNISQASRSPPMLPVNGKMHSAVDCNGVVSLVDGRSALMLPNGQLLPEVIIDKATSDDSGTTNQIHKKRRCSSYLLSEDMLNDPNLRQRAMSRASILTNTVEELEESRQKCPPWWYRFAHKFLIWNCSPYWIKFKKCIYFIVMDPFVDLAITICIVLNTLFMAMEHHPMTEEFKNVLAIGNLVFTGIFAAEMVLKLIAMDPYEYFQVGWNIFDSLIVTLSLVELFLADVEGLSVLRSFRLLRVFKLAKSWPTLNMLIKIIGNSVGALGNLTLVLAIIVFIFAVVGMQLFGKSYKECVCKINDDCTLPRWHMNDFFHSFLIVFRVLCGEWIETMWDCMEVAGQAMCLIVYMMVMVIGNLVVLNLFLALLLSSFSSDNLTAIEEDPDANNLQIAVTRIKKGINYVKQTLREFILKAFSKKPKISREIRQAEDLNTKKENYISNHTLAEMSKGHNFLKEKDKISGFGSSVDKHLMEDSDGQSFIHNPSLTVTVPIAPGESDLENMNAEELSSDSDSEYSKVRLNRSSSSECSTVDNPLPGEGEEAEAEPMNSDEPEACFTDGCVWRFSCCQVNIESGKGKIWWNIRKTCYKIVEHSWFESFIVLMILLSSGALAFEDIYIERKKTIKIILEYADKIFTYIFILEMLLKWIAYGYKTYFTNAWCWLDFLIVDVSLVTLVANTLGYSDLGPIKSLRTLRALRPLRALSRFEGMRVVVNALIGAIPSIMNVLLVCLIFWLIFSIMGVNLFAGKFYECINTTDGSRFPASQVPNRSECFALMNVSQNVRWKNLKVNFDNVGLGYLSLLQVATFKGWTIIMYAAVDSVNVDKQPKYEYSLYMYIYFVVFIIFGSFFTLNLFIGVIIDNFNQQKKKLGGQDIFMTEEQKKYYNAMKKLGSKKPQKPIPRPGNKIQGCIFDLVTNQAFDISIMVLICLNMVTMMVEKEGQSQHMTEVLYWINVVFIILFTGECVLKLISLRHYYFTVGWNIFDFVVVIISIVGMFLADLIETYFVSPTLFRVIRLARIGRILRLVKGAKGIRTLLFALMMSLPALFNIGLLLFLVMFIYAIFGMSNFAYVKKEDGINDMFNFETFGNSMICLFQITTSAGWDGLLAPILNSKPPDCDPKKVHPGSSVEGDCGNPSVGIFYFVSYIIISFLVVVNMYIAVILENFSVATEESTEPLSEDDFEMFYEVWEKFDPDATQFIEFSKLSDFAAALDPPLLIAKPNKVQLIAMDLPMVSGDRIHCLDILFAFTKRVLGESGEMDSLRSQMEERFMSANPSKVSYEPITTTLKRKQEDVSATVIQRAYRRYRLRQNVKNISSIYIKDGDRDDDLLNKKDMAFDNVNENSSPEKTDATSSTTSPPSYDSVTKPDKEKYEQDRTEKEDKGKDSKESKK
T2 sequence (P35499 whole entry, looked up): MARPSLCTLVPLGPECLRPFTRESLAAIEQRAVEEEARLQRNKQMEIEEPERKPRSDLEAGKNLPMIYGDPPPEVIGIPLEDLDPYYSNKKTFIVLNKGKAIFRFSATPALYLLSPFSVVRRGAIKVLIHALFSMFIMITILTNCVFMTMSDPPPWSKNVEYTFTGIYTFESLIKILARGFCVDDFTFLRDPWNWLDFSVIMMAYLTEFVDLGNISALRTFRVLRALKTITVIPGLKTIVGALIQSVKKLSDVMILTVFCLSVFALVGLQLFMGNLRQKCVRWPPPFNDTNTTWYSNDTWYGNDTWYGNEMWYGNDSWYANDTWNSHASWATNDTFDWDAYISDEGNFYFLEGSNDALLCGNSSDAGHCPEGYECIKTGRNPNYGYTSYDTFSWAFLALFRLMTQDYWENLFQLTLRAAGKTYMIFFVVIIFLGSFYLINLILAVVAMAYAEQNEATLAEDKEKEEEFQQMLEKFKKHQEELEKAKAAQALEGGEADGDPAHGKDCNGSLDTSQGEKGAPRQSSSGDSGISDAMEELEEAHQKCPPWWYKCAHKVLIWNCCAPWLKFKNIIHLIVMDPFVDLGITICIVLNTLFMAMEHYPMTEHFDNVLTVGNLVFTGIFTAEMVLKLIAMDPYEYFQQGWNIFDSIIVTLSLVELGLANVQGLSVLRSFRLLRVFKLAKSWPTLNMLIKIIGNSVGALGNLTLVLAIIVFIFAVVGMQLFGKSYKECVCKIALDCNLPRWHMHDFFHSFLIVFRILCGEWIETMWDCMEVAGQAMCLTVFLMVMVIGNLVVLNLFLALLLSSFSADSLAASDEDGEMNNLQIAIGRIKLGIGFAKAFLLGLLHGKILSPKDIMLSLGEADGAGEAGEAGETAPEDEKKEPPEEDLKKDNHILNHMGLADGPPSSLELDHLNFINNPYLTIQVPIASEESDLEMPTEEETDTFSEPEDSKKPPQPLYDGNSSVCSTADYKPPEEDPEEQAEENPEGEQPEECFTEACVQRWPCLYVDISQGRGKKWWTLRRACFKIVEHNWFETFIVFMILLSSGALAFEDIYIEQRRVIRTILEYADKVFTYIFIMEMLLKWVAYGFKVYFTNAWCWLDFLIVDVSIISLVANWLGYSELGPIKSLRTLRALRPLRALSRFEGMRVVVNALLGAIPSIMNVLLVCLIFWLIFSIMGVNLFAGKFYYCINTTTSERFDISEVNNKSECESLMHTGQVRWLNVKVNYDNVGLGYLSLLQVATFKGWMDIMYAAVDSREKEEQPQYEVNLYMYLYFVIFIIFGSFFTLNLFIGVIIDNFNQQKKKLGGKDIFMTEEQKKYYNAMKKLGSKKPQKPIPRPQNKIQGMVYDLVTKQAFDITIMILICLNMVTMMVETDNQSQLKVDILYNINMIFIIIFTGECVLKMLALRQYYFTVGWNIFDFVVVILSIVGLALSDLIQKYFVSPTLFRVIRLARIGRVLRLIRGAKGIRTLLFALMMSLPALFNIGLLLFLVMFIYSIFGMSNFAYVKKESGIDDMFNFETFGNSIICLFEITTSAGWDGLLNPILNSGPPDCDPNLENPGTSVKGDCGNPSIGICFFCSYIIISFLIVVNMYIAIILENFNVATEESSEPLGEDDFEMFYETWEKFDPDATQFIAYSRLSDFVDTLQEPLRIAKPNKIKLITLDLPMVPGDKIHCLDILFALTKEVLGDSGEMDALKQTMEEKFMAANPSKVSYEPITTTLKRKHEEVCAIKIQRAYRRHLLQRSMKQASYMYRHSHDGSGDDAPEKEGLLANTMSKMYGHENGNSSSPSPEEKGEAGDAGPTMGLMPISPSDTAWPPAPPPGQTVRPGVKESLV

Question: With `N=C(N)NCCC[C@@H]1NC(=O)[C@H](CO)NC(=O)[C@H](Cc2c[nH]cn2)NC(=O)[C@H](CC(=O)O)NC(=O)[C@H](CCCNC(=N)N)NC(=O)[C@@H]2CSSC[C@@H]3NC(=O)[C@@H](N)CSSC[C@@H](C(N)=O)NC(=O)[C@H](CSSC[C@H](NC(=O)[C@H](CC(N)=O)NC3=O)C(=O)N[C@@H](CO)C(=O)N[C@@H](CO)C(=O)N[C@@H](CCCCN)C(=O)N[C@@H](Cc3c[nH]c4ccccc34)C(=O)N2)NC1=O` [µ-KIIIA-ox-p2] as the compound, how does the IC50 [1] read?
Answer: 0.154 ± 0.015 µM

Question: Which IC50 [2] does the source give for μ-theraphotoxin-Hs2a [HwTx-IV] here?
Answer: 400 nM

Question: With `N=C(N)NCCC[C@@H]1NC(=O)[C@H](CO)NC(=O)[C@H](Cc2c[nH]cn2)NC(=O)[C@H](CC(=O)O)NC(=O)[C@H](CCCNC(=N)N)NC(=O)[C@@H]2CSSC[C@@H]3NC(=O)[C@@H](NC(=O)[C@@H](N)CCCCn4cc(C[C@H](N)C(=O)NCCOCCOCCOCCOCCC(=O)NCCOCCOCCOCCOCCC(=O)NCCOCCOCCOCCOCCC(=O)NCCOCCOCCOCCOCCC(=O)NN)nn4)CSSC[C@H](NC1=O)C(=O)N[C@H](C(N)=O)CSSC[C@H](NC(=O)[C@H](CC(N)=O)NC3=O)C(=O)N[C@@H](CO)C(=O)N[C@@H](CO)C(=O)N[C@@H](CCCCN)C(=O)N[C@@H](Cc1c[nH]c3ccccc13)C(=O)N2` [[K-KIIIA]-[PEG80]] as the compound, how does the “IC50 relative to 1, hNaV1.4” value [3] read?
Answer: 16.0× ↑

Question: What about the IC50 [3] of the same compound?
Answer: 0.144 ± 0.046 µM

Question: Which IC50 [1] does the source give for `N=C(N)NCCC[C@@H]1NC(=O)[C@H](CO)NC(=O)[C@H](Cc2c[nH]cn2)NC(=O)[C@H](CC(=O)O)NC(=O)[C@H](CCCNC(=N)N)NC(=O)[C@@H]2CSSC[C@@H]3NC(=O)[C@@H](N)CSSC[C@H](NC1=O)C(=O)N[C@H](C(N)=O)CSSC[C@H](NC(=O)[C@H](CC(N)=O)NC3=O)C(=O)N[C@@H](CO)C(=O)N[C@@H](CO)C(=O)N[C@@H](CCCCN)C(=O)N[C@@H](Cc1c[nH]c3ccccc13)C(=O)N2` [μ-KIIIA, μ-conotoxin KIIIA] here?
Answer: 0.132 ± 0.037 µM

Question: For “E1G, E4G, Y33W huwentoxin-IV [m3-HwTx-IV]”, which IC50 ([4]; SEM) is on record?
Answer: 369 ± 196 nM

Question: And the IC50 ([4]; read-out: IC50 (nM ± SEM), hNaV1.4)?
Answer: 370 nM

Question: And the IC50 [5]?
Answer: 0.4 ± 0.1 nM

Question: Which “IC50 relative to 1, hNaV1.4” value [3] does the source give for `[N-]=[N+]=NCCCC[C@H](N)C(=O)N[C@H]1CSSC[C@@H]2NC(=O)[C@H](CCCNC(=N)N)NC(=O)[C@H](CO)NC(=O)[C@H](Cc3c[nH]cn3)NC(=O)[C@H](CC(=O)O)NC(=O)[C@H](CCCNC(=N)N)NC(=O)[C@@H]3CSSC[C@H](NC1=O)C(=O)N[C@@H](CC(N)=O)C(=O)N[C@@H](CSSC[C@@H](C(N)=O)NC2=O)C(=O)N[C@@H](CO)C(=O)N[C@@H](CO)C(=O)N[C@@H](CCCCN)C(=O)N[C@@H](Cc1c[nH]c2ccccc12)C(=O)N3` [AzK-KIIIA] here?
Answer: 3.6× ↑

Question: What about the IC50 [3] of the same compound?
Answer: 0.032 ± 0.01 µM

Question: And the IC50 [1]?
Answer: 0.096 ± 0.041 µM

Question: What about the “recovery of sodium current at end of washout, hNaV1.4” value [6] of the same compound?
Answer: ~40%

Question: What about the koff ([6]; read-out: koff, hNaV1.4, SEM) of the same compound?
Answer: 0.00118 s⁻¹

Question: And the kon ([6]; read-out: kon, hNaV1.4)?
Answer: 39700 M⁻¹ s⁻¹

Question: What about the “recovery of sodium current at end of washout, hNaV1.7” value [7] of the same compound?
Answer: 12.6 ± 1.2%

Question: What about the koff ([7]; read-out: koff, hNaV1.7, SEM) of the same compound?
Answer: 0.000392 s⁻¹

Question: And the kon ([7]; read-out: kon, hNaV1.7)?
Answer: 16200 M⁻¹ s⁻¹
